The results in this text go back to the supplement of paper PMC12613149.

Series [1] can be described thus: collision cross section (TIMS, N2 drift gas) of the primary ion; higher = larger gas-phase ion size.
Series [2] can be described thus: reversed-phase LC retention time (C18, 15 min MeOH gradient); higher = more hydrophobic / later elution.
[3] abbreviates: ionization mode: ESI-, ion species: [M-H]-.
The mark [4] stands for this setting: ionization mode: ESI+, ion species: [M+H]+.
Setting [5] is: ionization mode: ESI+, ion species: [M]+.

`Cc1cccc(C)c1N(Cn1cccn1)C(=O)C(=O)O` [Metazachlor OA] came in with a collision cross section in series [1] (setting [3]) of 162.14 Å². For the same molecule, the “reversed-phase LC retention time” value in series [2] (setting [3]) turned out to be 8.92 min.
In turn, `Cc1cccc(C)c1N(Cn1cccn1)C(=O)CO` [Metazachlor-2-hydroxy] had a collision cross section in series [1] (setting [4]) of 156.95 Å². In addition, in series [2] (setting [4]), the “reversed-phase LC retention time” value was determined as 11.1 min.
The molecule `Cc1cccc(C)c1N(Cn1cccn1)C(=O)CCl` [Metazachlor] came in with a collision cross section in series [1] (setting [4]) of 159.2 Å². In addition, in series [2] (setting [4]), the “reversed-phase LC retention time” value was found to be 12.9 min.
In turn, `CC1(C)CCC(Cc2ccc(Cl)cc2)C1(O)Cn1cncn1` (configuration not stated) [Metconazole] had a collision cross section in series [1] (setting [4]) of 170.17 Å². In addition, in series [2] (setting [4]), the “reversed-phase LC retention time” value came to 15.8 min.
`CNC(=O)Oc1cc(C)c(S(C)(=O)=O)c(C)c1` [Methiocarb sulfone] displayed a collision cross section in series [1] (setting [4]) of 162.89 Å². In series [2] (setting [4]), the “reversed-phase LC retention time” value is 9.59 min.
In turn, `Cc1cc(O)cc(C)c1S(C)=O` (configuration not stated) [Methiocarb-sulfoxide phenol] displayed a collision cross section in series [1] (setting [4]) of 138.02 Å². The “reversed-phase LC retention time” value in series [2] (setting [4]) stood at 8.4 min.
In series [1] (setting [4]), `CN(Cc1cnc2nc(N)nc(N)c2n1)c1ccc(C(=O)N[C@@H](CCC(=O)O)C(=O)O)cc1` [Methotrexate] yielded a collision cross section of 197.21 Å². Further, in series [2] (setting [4]), the “reversed-phase LC retention time” value stood at 7.82 min.
`COC(=O)CCc1cc(C(C)(C)C)c(O)c(C(C)(C)C)c1` [Methyl 3-(3,5-di-tert-butyl-4-hydroxyphenyl)propionate]: in series [1] (setting [3]), the collision cross section came to 179.88 Å². Besides, in series [2] (setting [3]), the “reversed-phase LC retention time” value amounted to 17.3 min.
On to `Cn1sc(Cl)cc1=O` [Methylchloroisothiazolinone], for which the collision cross section in series [1] (setting [4]) was determined as 120.77 Å². The “reversed-phase LC retention time” value in series [2] (setting [4]) is 7.46 min.
The corresponding values for `Cn1ncc(N)c(Cl)c1=O` [Methyldesphenylchloridazon] are 123.51 Å² and 5.06 min.
As for `C[P+](c1ccccc1)(c1ccccc1)c1ccccc1` [Methyltriphenylphosphonium], the collision cross section in series [1] (setting [5]) is recorded as 162.96 Å². In addition, the “reversed-phase LC retention time” value in series [2] (setting [5]) turned out to be 10.1 min.
Regarding `CON(C)C(=O)Nc1ccc(Br)cc1` [Metobromuron], the collision cross section in series [1] (setting [4]) worked out at 148.37 Å². The “reversed-phase LC retention time” value in series [2] (setting [4]) stood at 12.6 min.
Consider `CCc1cccc(C)c1N(C(=O)CS(=O)(=O)O)C(C)COC` (configuration not stated) [Metolachlor ESA], for which the results for the collision cross section in series [1] (setting [4]) and in series [1] (setting [3]) were 170.74 Å² and 173.48 Å², respectively. Moreover, the “reversed-phase LC retention time” value in series [2] (setting [4]) worked out at 12.1 min; in series [2] (setting [3]) it was 12 min.
The corresponding values for `CCc1cccc(C)c1N(C(=O)C(=O)O)C(C)COC` (configuration not stated) [Metolachlor OA] are 160 Å², 165.62 Å², 12.7 min and 11.9 min.
`CCc1cccc(C)c1N(C(=O)CCl)C(C)COC` (configuration not stated) [Metolachlor]: in series [1] (setting [4]), the collision cross section was determined as 160.17 Å². The “reversed-phase LC retention time” value in series [2] (setting [4]) worked out at 15.1 min.
For the molecule `CC(C)NCC(O)COc1ccc(CC(=O)O)cc1` (configuration not stated) [Metoprolol acid], the collision cross section in series [1] (setting [4]) worked out at 166.24 Å². Moreover, the “reversed-phase LC retention time” value in series [2] (setting [4]) is 7.62 min.
For the molecule `COCCc1ccc(OCC(O)CNC(C)C)cc1` (configuration not stated) [Metoprolol], in series [1] (setting [4]), the collision cross section was 171.87 Å². For the same molecule, the “reversed-phase LC retention time” value in series [2] (setting [4]) worked out at 9.39 min.
In series [1] (setting [4]), `COc1cc(C)c(C(=O)c2c(OC)ccc(Br)c2C)c(OC)c1OC` [Metrafenone] returned a collision cross section of 184.27 Å². In addition, the “reversed-phase LC retention time” value in series [2] (setting [4]) turned out to be 15.9 min.
Consider `CSc1nnc(C(C)(C)C)c(=O)n1N` [Metribuzin], for which the collision cross section in series [1] (setting [4]) was determined as 147.77 Å². Moreover, in series [2] (setting [4]), the “reversed-phase LC retention time” value was found to be 11.4 min.
The molecule `Cc1ncc([N+](=O)[O-])n1CCO` [Metronidazole] showed a collision cross section in series [1] (setting [4]) of 132.43 Å². Besides, the “reversed-phase LC retention time” value in series [2] (setting [4]) stood at 5.53 min.
Regarding `CN(C)c1ccc(C(=O)c2ccc(N(C)C)cc2)cc1` [Michler's ketone], the collision cross section in series [1] (setting [4]) is given as 166.78 Å². Moreover, the “reversed-phase LC retention time” value in series [2] (setting [4]) amounted to 14.9 min.
In series [1] (setting [4]), `Clc1ccc(COC(Cn2ccnc2)c2ccc(Cl)cc2Cl)c(Cl)c1` (configuration not stated) [Miconazole] gave a collision cross section of 191.81 Å². In series [2] (setting [4]), the “reversed-phase LC retention time” value was found to be 15.6 min.
`CN1CCN2c3ncccc3Cc3ccccc3C2C1` (configuration not stated) [Mirtazapine] had a collision cross section in series [1] (setting [4]) of 160.18 Å². For the same molecule, in series [2] (setting [4]), the “reversed-phase LC retention time” value was 9.54 min.
For the molecule `C[C@@H]1C[C@H]2[C@@H]3CCC4=CC(=O)C=C[C@]4(C)[C@@]3(Cl)[C@@H](O)C[C@]2(C)[C@@]1(OC(=O)c1ccco1)C(=O)CCl` [Mometasone fuorate], the collision cross section turned out to be 217.59 Å² in series [1] (setting [4]) and 214.51 Å² in series [1] (setting [3]). Besides, the “reversed-phase LC retention time” value is 15.2 min in series [2] (setting [4]) and 15.7 min in series [2] (setting [3]).
On to `CCC1(C2OC(C3OC(O)(CO)C(C)CC3C)CC2C)CCC(C2(C)CCC3(CC(O)C(C)C(C(C)C(OC)C(C)C(=O)O)O3)O2)O1` (configuration not stated) [Monensin], for which, in series [1] (setting [3]), the collision cross section worked out at 244.26 Å². For the same molecule, the “reversed-phase LC retention time” value in series [2] (setting [3]) came out at 17.5 min.
With `CC(C)COC(=O)c1ccccc1C(=O)O` [Mono-iso-butyl-phthalate], in series [1] (setting [3]), the collision cross section worked out at 151.15 Å². Further, in series [2] (setting [3]), the “reversed-phase LC retention time” value came out at 10.2 min.
As for `O=C(O)c1ccccc1C(=O)OCc1ccccc1` [Monobenzyl phthalate], the figures for the collision cross section in series [1] (setting [4]) and in series [1] (setting [3]) were 155.89 Å² and 159.96 Å², respectively. The “reversed-phase LC retention time” value came out at 17.1 min in series [2] (setting [4]) and 10.7 min in series [2] (setting [3]).
